According to PubChem BioAssay (NCI):
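Five concentrations, 48 hours, 96-well plates. Definition used: TGI = concentration required for complete inhibition of growth.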

Test system: DU-145 prostate
Experiment: inhibition of tumour cell growth, NCI panel, 48 h

Structure (SMILES) | TGI
O=C(/C=C/c1ccccc1)CCC1C(=O)c2ccccc2C1=O | > 100 µM
Brc1ccc2[nH]cc(-c3csc(-c4c[nH]c5ccccc45)n3)c2c1 | 9.15 µM
COc1cc(OC)cc(Oc2nc3ccccc3nc2C(F)(F)F)c1 | > 100 µM
CCOC(=O)CCC(NC(=O)Cc1ccc(Nc2nc3cc(F)c(F)cc3nc2C(=O)OCC)cc1)C(=O)OCC (configuration not stated) | > 100 µM
[N-]=[N+]=Nc1c([N+](=O)[O-])c(=O)n(-c2ccccc2)c2ccccc12 | > 100 µM
O=[N+]([O-])c1ccc2[nH]c(=S)[nH]c(=S)c2c1 | > 100 µM

Test system: MDA-MB-435
Experiment: inhibition of tumour cell growth, NCI panel, 48 h

Structure (SMILES) | TGI
O=c1oc2ccc3ccccc3c2cc1-c1nc2ccccc2s1 | > 100 µM
COC[C@@H](N=CC(C)(C)C)C(C)C | > 100 µM
CC(C)(C)OC(=O)NC1CCCCC1NC(=O)C(=O)NC1CCCCC1NC(=O)OC(C)(C)C (configuration not stated) | > 100 µM
COc1cc(OC)c2nc(C)c(CCCl)c(Cl)c2c1 | > 100 µM
COc1cc(C2c3cc4c(cc3OC(N3CCCCC3)C2C)OCO4)cc(OC)c1O (configuration not stated) | 5.92 µM
O=C(/C=C/c1ccccc1)CCC1C(=O)c2ccccc2C1=O | > 100 µM
Brc1ccc2[nH]cc(-c3csc(-c4c[nH]c5ccccc45)n3)c2c1 | 15.7 µM
COc1cc(OC)cc(Oc2nc3ccccc3nc2C(F)(F)F)c1 | > 100 µM
CCOC(=O)CCC(NC(=O)Cc1ccc(Nc2nc3cc(F)c(F)cc3nc2C(=O)OCC)cc1)C(=O)OCC (configuration not stated) | > 100 µM
[N-]=[N+]=Nc1c([N+](=O)[O-])c(=O)n(-c2ccccc2)c2ccccc12 | 47 µM
O=[N+]([O-])c1ccc2[nH]c(=S)[nH]c(=S)c2c1 | > 100 µM

Test system: SN12C renal
Experiment: inhibition of tumour cell growth, NCI panel, 48 h

Structure (SMILES) | TGI
O=c1oc2ccc3ccccc3c2cc1-c1nc2ccccc2s1 | > 100 µM
COC[C@@H](N=CC(C)(C)C)C(C)C | > 100 µM
CC(C)(C)OC(=O)NC1CCCCC1NC(=O)C(=O)NC1CCCCC1NC(=O)OC(C)(C)C (configuration not stated) | > 100 µM
COc1cc(OC)c2nc(C)c(CCCl)c(Cl)c2c1 | > 100 µM
COc1cc(C2c3cc4c(cc3OC(N3CCCCC3)C2C)OCO4)cc(OC)c1O (configuration not stated) | 27.5 µM
O=C(/C=C/c1ccccc1)CCC1C(=O)c2ccccc2C1=O | > 100 µM
Brc1ccc2[nH]cc(-c3csc(-c4c[nH]c5ccccc45)n3)c2c1 | 14.2 µM
COc1cc(OC)cc(Oc2nc3ccccc3nc2C(F)(F)F)c1 | > 100 µM
CCOC(=O)CCC(NC(=O)Cc1ccc(Nc2nc3cc(F)c(F)cc3nc2C(=O)OCC)cc1)C(=O)OCC (configuration not stated) | > 100 µM
[N-]=[N+]=Nc1c([N+](=O)[O-])c(=O)n(-c2ccccc2)c2ccccc12 | 62.9 µM
O=[N+]([O-])c1ccc2[nH]c(=S)[nH]c(=S)c2c1 | > 100 µM

Test system: HCT-15 colon
Experiment: inhibition of tumour cell growth, NCI panel, 48 h

Structure (SMILES) | TGI
O=c1oc2ccc3ccccc3c2cc1-c1nc2ccccc2s1 | > 100 µM
COC[C@@H](N=CC(C)(C)C)C(C)C | > 100 µM
CC(C)(C)OC(=O)NC1CCCCC1NC(=O)C(=O)NC1CCCCC1NC(=O)OC(C)(C)C (configuration not stated) | > 100 µM
COc1cc(OC)c2nc(C)c(CCCl)c(Cl)c2c1 | > 100 µM
COc1cc(C2c3cc4c(cc3OC(N3CCCCC3)C2C)OCO4)cc(OC)c1O (configuration not stated) | > 57.1 µM
O=C(/C=C/c1ccccc1)CCC1C(=O)c2ccccc2C1=O | > 100 µM
Brc1ccc2[nH]cc(-c3csc(-c4c[nH]c5ccccc45)n3)c2c1 | 6.54 µM
COc1cc(OC)cc(Oc2nc3ccccc3nc2C(F)(F)F)c1 | > 100 µM
CCOC(=O)CCC(NC(=O)Cc1ccc(Nc2nc3cc(F)c(F)cc3nc2C(=O)OCC)cc1)C(=O)OCC (configuration not stated) | > 100 µM
[N-]=[N+]=Nc1c([N+](=O)[O-])c(=O)n(-c2ccccc2)c2ccccc12 | 64.6 µM
O=[N+]([O-])c1ccc2[nH]c(=S)[nH]c(=S)c2c1 | > 100 µM

Test system: HCT-116 colon
Experiment: inhibition of tumour cell growth, NCI panel, 48 h

Structure (SMILES) | TGI
O=c1oc2ccc3ccccc3c2cc1-c1nc2ccccc2s1 | > 100 µM
COC[C@@H](N=CC(C)(C)C)C(C)C | > 100 µM
CC(C)(C)OC(=O)NC1CCCCC1NC(=O)C(=O)NC1CCCCC1NC(=O)OC(C)(C)C (configuration not stated) | > 100 µM
COc1cc(OC)c2nc(C)c(CCCl)c(Cl)c2c1 | > 100 µM
COc1cc(C2c3cc4c(cc3OC(N3CCCCC3)C2C)OCO4)cc(OC)c1O (configuration not stated) | 25.7 µM
O=C(/C=C/c1ccccc1)CCC1C(=O)c2ccccc2C1=O | > 100 µM
Brc1ccc2[nH]cc(-c3csc(-c4c[nH]c5ccccc45)n3)c2c1 | 6.66 µM
COc1cc(OC)cc(Oc2nc3ccccc3nc2C(F)(F)F)c1 | > 100 µM
CCOC(=O)CCC(NC(=O)Cc1ccc(Nc2nc3cc(F)c(F)cc3nc2C(=O)OCC)cc1)C(=O)OCC (configuration not stated) | > 100 µM
[N-]=[N+]=Nc1c([N+](=O)[O-])c(=O)n(-c2ccccc2)c2ccccc12 | 51.3 µM
O=[N+]([O-])c1ccc2[nH]c(=S)[nH]c(=S)c2c1 | > 100 µM

Test system: MOLT-4 leukemia
Experiment: inhibition of tumour cell growth, NCI panel, 48 h

Structure (SMILES) | TGI
O=c1oc2ccc3ccccc3c2cc1-c1nc2ccccc2s1 | > 21.6 µM
COC[C@@H](N=CC(C)(C)C)C(C)C | > 100 µM
